The target of the experiment is T1, D1 dopamine receptor (Macaca fascicularis, UniProt Q5I6B7).
T1 sequence (Q5I6B7 whole entry): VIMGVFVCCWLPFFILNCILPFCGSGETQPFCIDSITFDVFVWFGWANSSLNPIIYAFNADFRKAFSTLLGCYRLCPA

The record followed here is BindingDB's records for doi:10.1111/j.1527-3458.2004.tb00024.x (Karolinska Institutet, 2004).

As for `Oc1cc2c(cc1O)C1c3ccccc3CNC1CC2` (stereo unspecified) [Dihydrexidine, DHX], affinity was put at a Ki of 20.2 nM.
